Measured values taken from patent US9439980B2, “Thymidylate kinase fusions and uses thereof” (priority 2008, dated 2016).

Test system: Jurkat cells
Assay: HPLC determination of AZT metabolites in cells treated with 100 μM AZT
Format: cell-based, human
Conditions: 36 hrs
Experimental: The cells were cultured in the presence of 100 μM AZT for 36 hrs. 10^7 cells were homogenized by sonication in 100 μl of 5% (w/v) trichloroacetic acid. The supernatant is collected after homogenate had been centrifuged at 10,000×g for 15 min at 4° C. The trichloroacetic acid was removed by extraction with an equal volume of 20% tri-n-octylamine in pentane. The neutralized aqueous fraction is directly injected into HPLC. Separation of AZT and its metabolites was performed on a C18 column (Waters) with a mobile phase composed of 0.2 M phosphate buffer containing 4 mM tetrabutylammonium hydrogen sulfate (pH 7.5) and acetonitrile in the ratio of 97:3 (v/v). The mobile phase was pumped at a flow rate of 1.5 ml/min. The UV absorbance was monitored at 270 nm. Five million cell equivalents were injected and analyzed in triplicate.

SMILES: Cc1cn([C@H]2C[C@H](N=[N+]=[N-])[C@@H](CO)O2)c(=O)[nH]c1=O [AZT, 3′-azido-3′-deoxythymidine]
- conversion ratio of AZT-TP to AZT-MP in non-transduced cells: 0.02
